Laboratory results taken from patent US5618726A, “Biodegradable azo dyes” (priority 1994, dated 1997).
Values belong to the compound of their own block, whether it stands above or below them.

Assays:
ligninase = assay: Oxidation of dyes by P. chrysosporium ligninase (crude preparation); type: biochemical, Phanerochaete chrysosporium; conditions: for Oxidation / decolorization by ligninase: pH3, 0.2 mM hydrogen peroxide, 15-minute incubation
Procedure, shortened: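 Crude P. chrysosporium ligninase oxidation of dyes, assayed by a previously reported method; conditions as for acid yellow 9, readings every 30 s for up to 15 minutes.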

[1] = system: Phanerochaete chrysosporium; assay: Substrate removal / decolorization by P. chrysosporium culture; type: cell-based; conditions: for % Decolorization, P. chrysosporium: 14 days
Method: Environ. Microbiol., 1981, 42:290-296), with the addition of 75 mg adenine (6-aminopurine) and 27 mg L-phenylalanine-per-liter. This addition accelerated the growth of the fungus without inhibiting ligninase activity. […] […] Cultures were incubated at 37° C. for 7 to 15 days with shaking (250 rpm). Solid agar media were also employed.

P. chrysosporium = assay: Mineralization of 14C-labeled dyes by shaken cultures; type: cell-based, Phanerochaete chrysosporium; conditions: for Percentage of radioactivity recovered in biomass (cells), P. chrysosporium / Percentage of radioactivity removed from the medium, P. chrysosporium / Percentage of radioactivity recovered in CO2, P. chrysosporium: 21 days' growth, 200 mg/liter
Method: (§1) Agitated cultures containing 100,000 to 150,000 dpm of azo dye at a concentration of 200 mg/liter for P. chrysosporium and 50 mg/liter for S. chromofuscus were incubated at 37° C. for 20 days with shaking at 200 rpm. For each mineralization experiment six replicates-per-culture were run for P. chrysosporium and three replicates-per-culture for S. chromofuscus. Each culture flask contained a CO2 trap consisting of a small glass cup connected to the bottom of the rubber stopper. The cup contained 1 ml of 1N NaOH. Samples were taken every 2 days, and after each sampling cultures were flushed with 100% oxygen for 30 s. At the sampling time, the stopper was removed and the NaOH containing trapped CO2 was transferred to a 20-ml scintillation vial, and the cup was then rinsed twice with 1 ml of water. Two ml of rinse water were also transferred to the vial. Finally, 10 ml of Ecolite scintillation cocktail (ICN Biochemicals Inc., Irvine, Calif.) were added to each vial. Vials, after mixing, were stored in the dark for 24 h. The cpm of trapped radioactivity was then determined in a Packard Tri-Carb liquid scintillation analyzer, Model 1500, using the ^14 C quench standards and SIS numbers.
Either a charcoal-containing polyurethane sponge (Bio-Rad Laboratories, Richmond, Calif.) or 2-methoxyethanol was used to trap volatile organic compounds released during mineralization experiments. The sponge (1 cm^3) replaced the 1N NaOH solution in the small glass cap attached to the rubber stopper; other conditions were as before for the ^14 CO2 experiments. For scintillation counting, the charcoal sponges were dissolved in 1 ml of hyamine hydroxide contained in scintillation vials (1M solution in methanol; NEN Research Products, Boston, Mass.) held at 55° C. for 2 h. Ten ml of Ecolite scintillation cocktail were then added and the cpm was measured.
In the second procedure, cultures with CO2 traps were flushed with oxygen for 10 min, and the organic volatiles present were trapped in 10 ml of 2-methoxyethanol mixed with 10 ml Ecolite.
(§2) The removal of radioactivity from the media was determined by measuring the amount of ^14 C label in 0.1 ml of the medium at time 0 and 21 days for each culture. Uninoculated cultures were used as evaporation controls. […] At the end of each mineralization experiment, culture broths were acidified with 5 ml of 1M H3 PO4, fresh 1N NaOH was added to the trap, and the cultures were shaken overnight. No additional releases of ^14 CO2 were observed. The radioactivity assimilated by the cells was measured by solubilizing biomass harvested from each 21-day-old culture in an equal volume of hyamine hydroxide solution. Before solubilization, cells were washed three times with 50 ml of distilled water to remove adsorbed dyes. Ecolite 10 ml was added to the mixture, which was vortexed vigorously. To increase counting efficiency, the solution of biomass-hyamine-scintillation cocktail was further diluted 10 to 20 times with fresh Ecolite before counting.

[2] = system: Streptomyces chromofuscus; assay: as above; type: cell-based; conditions: for Percentage of radioactivity recovered in CO2, Streptomyces chromofuscus / Percentage of radioactivity recovered in biomass (cells), Streptomyces chromofuscus / Percentage of radioactivity removed from the medium, Streptomyces chromofuscus: 21 days' growth, 50 mg/liter
Method: as §1, §2

Mn(II)-peroxidase [3] = assay: Oxidation of dyes by P. chrysosporium Mn(II)-peroxidase; type: biochemical, Phanerochaete chrysosporium; conditions: for Oxidation by manganese peroxidase: 15-minute incubation period
soil microflora = assay: Degradation of azo dyes by soil microflora; type: cell-based; conditions: water from a soil sample; for Dye mineralized by soil microflora: 14CO2 trapped; for Dye transformed by soil microflora: carbon source, air flow
Method: The degradation of azo dyes by soil microflora in general was evaluated by forming a mixture of azo dyes 33 and 34 with water from a soil sample. The soil sample contained soil microflora that had not adapted to using azo dyes as substrates. A carbon source was added to the mixture and a continuous air flow through the mixture was maintained. The ^14 CO2 released by the mixture was trapped using a 1N NaOH.

Streptomyces spp. = assay: Decolorization of naphthol azo dyes by Streptomyces spp.; type: cell-based
Text: (§3) Microbiol., 1984, 130:2905-2913.
(§4) Replicate sterile controls also were run in each experiment.

S. badius 252 = type: cell-based; conditions: streptomyces badius 252 culture, 336 h
Text: as §3, §4

S. diastaticus A12 = type: cell-based; conditions: streptomyces diastaticus a12 culture, 336 h
Text: as §3, §4

S. diastaticus A13 = type: cell-based; conditions: streptomyces diastaticus a13 culture, 336 h
Text: as §3, §4

S. rochei A10 = type: cell-based; conditions: streptomyces rochei a10 culture, 336 h
Text: as §3, §4

S. rochei A14 = type: cell-based; conditions: streptomyces rochei a14 culture, 336 h
Text: as §3, §4

S. chromofuscus A11 = conditions: streptomyces chromofuscus a11 culture, 336 h
Method: as §3, §4
The Streptomyces were grown on the same media and under the same conditions as previously described. […] Thus, the spectrophotometric assays for substrates 1-12 were carried out at their specific isobastic points. Degradation was calculated as percent of substrates removed from culture broth, considering the evaporation factor (around 10%).

S. chromofuscus A20 = conditions: streptomyces chromofuscus a20 culture, 336 h
Method: (§5) Each Streptomyces species was grown in a cotton-plugged 250 ml flask containing 25 ml of the following medium: 0.2M Tris buffer (pH 7.6), 100 ml; vitamin-free Casamino acids (Difco), 1.0 g; thiamine, 100 μg; biotin, 100 μg; D-glucose, 2 g; deionized water, 900 ml.
The dyes were filter-sterilized and added at 0.005% (w/v) to the autoclaved basal medium. Alternatively, azo dye stock solutions were sterilized by filtration (pore size 0.2 μm) and added to autoclaved basal medium at concentrations of 50 or 100 ppm. Three replicates of every culture were incubated, and each strain was grown in media supplemented individually with every substrate. Replicate sterile controls also were run in each experiment. Cultures were incubated at 37° C. for 14 days with shaking (200-250 rpm). Three replicates for each strain growth were incubated in only the basal medium as well.
A one ml sample of culture medium was centrifuged and then diluted 2.5-5.0 fold (actinomycete culture) or 5- to 10-fold (fungal culture) with distilled water. Alternatively, 1.0 ml of fungal supernatant was centrifuged and diluted 5-fold with 10 mM sodium 2,2-dimethylsuccinate buffer (DMS) of pH 4.5. Azo dye substrate present was then measured spectrophotometrically with a Hewlett-Packard 8452 diode array spectrophotometer operated by a PC Vectra computer equipped with HP's MS™-DOS/UV-VIS software. To be certain that changes in substrate spectra were not due to pH variations, the effects of pH on the visible absorption of each compound were also assayed within physiological pH range in the culture media. […] Thus, the spectrophotometric assays for the dyes were typically carried out at their isobestic points. For instance, the spectrophotometric assays were carried out at 450 nm for azo dye 1 and 400 nm for azo dye 2. […] The compounds were quantified by first developing standard curves of absorbance versus concentrations (0-50 μg) and then comparing measured absorbance values to the standard curves.

S. viridosporus T7A = conditions: streptomyces viridosporus t7a culture, 336 h
Method: as §5
The dyes were filter-sterilized and added at 0.005% (w/v) to the autoclaved basal medium. Alternatively, azo dye stock solutions were sterilized by filtration (pore size 0.2 μm) and added to autoclaved basal medium at concentrations of 50 or 100 ppm. Three replicates of every culture were incubated, and each strain was grown in media supplemented individually with every substrate. Replicate sterile controls also were run in each experiment. […] Three replicates for each strain growth were incubated in only the basal medium as well.
A one ml sample of culture medium was centrifuged and then diluted 2.5-5.0 fold (actinomycete culture) or 5- to 10-fold (fungal culture) with distilled water. Alternatively, 1.0 ml of fungal supernatant was centrifuged and diluted 5-fold with 10 mM sodium 2,2-dimethylsuccinate buffer (DMS) of pH 4.5. […] To be certain that changes in substrate spectra were not due to pH variations, the effects of pH on the visible absorption of each compound were also assayed within physiological pH range in the culture media. While the spectra of sulfanilic acid (Max abs at 250 nm), vanillic acid (Max abs at 252 nm and 286 nm) and acid yellow 9 (Max abs at 336 nm) were unaffected by pH over the tested pH range, the spectra of several novel azo dyes were changed as evidenced by shifts of their Absmax. Thus, the spectrophotometric assays for the dyes were typically carried out at their isobestic points. […] Spectrophotometric measurements were carried out at the absorbance maxima for azo dyes 16, 17, 18, 19, 31, and 32 (See Table 1 below). […] The compounds were quantified by first developing standard curves of absorbance versus concentrations (0-50 μg) and then comparing measured absorbance values to the standard curves.

[4] = target: T1, horseradish peroxidase type II (Armoracia rusticana, UniProt P00433); assay: Oxidation of azo dyes by horseradish peroxidase preparation; type: biochemical; conditions: pH 8, 37° C., H2O2
T1 sequence (P00433 31-338): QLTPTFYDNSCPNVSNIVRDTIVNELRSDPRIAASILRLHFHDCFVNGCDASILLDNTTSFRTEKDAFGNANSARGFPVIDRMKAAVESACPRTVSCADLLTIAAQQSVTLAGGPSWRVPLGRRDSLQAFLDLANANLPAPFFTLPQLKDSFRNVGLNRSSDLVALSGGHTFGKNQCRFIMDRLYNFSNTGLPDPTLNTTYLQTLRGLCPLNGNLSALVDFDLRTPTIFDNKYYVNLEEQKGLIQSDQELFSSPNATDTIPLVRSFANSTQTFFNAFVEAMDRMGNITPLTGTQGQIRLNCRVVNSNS
Method: The reaction was started with the addition of 100 μl of 50 mM H2 O2 and was followed for 1 min at 37° C. Controls were run with no addition of H2 O2 or with the addition of the hemeperoxidase inhibitor KCN (final concentration 25 μM).

[5] = system: S. chromofuscus A11 extracellular peroxidase; assay: Oxidation of azo dyes by S. chromofuscus A11 crude enzyme preparation; type: biochemical, Streptomyces chromofuscus A11; conditions: pH 8, 37° C., H2O2
Procedure, shortened: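 Enzyme from 48 h S. chromofuscus A11 culture supernatant, concentrated, ammonium sulfate-precipitated, dialyzed in 20 mM HEPES pH 8; yellow Sephadex G-25 fraction used. Reaction started with 100 μl 50 mM H2O2, followed 1 min at 37° C; controls without H2O2 or with 25 μM KCN.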

Mn(II)-peroxidase [6] = assay: Oxidation of dyes by P. chrysosporium Mn(II)-peroxidase; type: biochemical, Phanerochaete chrysosporium; conditions: crude enzyme, conditions specific for Mn(II)-peroxidase
[7] = p. chrysosporium culture, 168 h

Oxidation / decolorization by ligninase (ligninase): transformed slowly
Percent substrate removed, P. chrysosporium [1, 7]: 68%
Oxidation by manganese peroxidase (Mn(II)-peroxidase [3]): not detected
Structure (SMILES): Nc1ccc(S(=O)(=O)O)cc1 [Sulfanilic acid, 4-Amino-[U-^14 C]benzenesulfonic acid]
Percentage of radioactivity recovered in biomass (cells), P. chrysosporium (P. chrysosporium): 1.3%
Percentage of radioactivity removed from the medium, P. chrysosporium (P. chrysosporium): 25.0%
Percentage of radioactivity recovered in CO2, P. chrysosporium (P. chrysosporium; listed as Sulfanilic Acid): 17.2%
Percentage of radioactivity recovered in CO2, P. chrysosporium (P. chrysosporium; listed as sulfanilic acid): 17%
Start of mineralization in the fungal culture (P. chrysosporium; P. chrysosporium): tenth day
Percentage of radioactivity recovered in CO2, Streptomyces chromofuscus [2]: 0.0%
Percentage of radioactivity recovered in biomass (cells), Streptomyces chromofuscus [2]: 0.0%
Percentage of radioactivity removed from the medium, Streptomyces chromofuscus [2]: 0.0%

Dye mineralized by soil microflora (soil microflora): 1.1%
Dye transformed by soil microflora (soil microflora): 3.4%
Structure (SMILES): Nc1ccc(N=N[14c]2[14cH][14cH][14c](S(=O)(=O)O)[14cH][14cH]2)cc1S(=O)(=O)O [compound 33]

Amount of dye decolorized by ligninase (ligninase; out of 10 micrograms, 15 minutes, pH3, 0.6 units of enzyme): about 3 micrograms
Percent substrate removed, P. chrysosporium [1, 7]: 79%
Oxidation by manganese peroxidase (Mn(II)-peroxidase [3]): not detected
Structure (SMILES): Nc1ccc(N=Nc2ccc(S(=O)(=O)O)cc2)cc1S(=O)(=O)O [Azo dye 18, 4-amino-1,1'-azobenzene-3,4'-disulfonic acid]
Percentage of radioactivity recovered in CO2, P. chrysosporium (P. chrysosporium): 26.9%
Percentage of radioactivity recovered in biomass (cells), P. chrysosporium (P. chrysosporium): 2.3%
Percentage of radioactivity removed from the medium, P. chrysosporium (P. chrysosporium): 33.0%
Percentage of radioactivity recovered in CO2, Streptomyces chromofuscus [2]: 0.0%
Percentage of radioactivity recovered in biomass (cells), Streptomyces chromofuscus [2]: 0.0%
Percentage of radioactivity removed from the medium, Streptomyces chromofuscus [2]: 0.0%

Oxidation rate of azo dyes, Horseradish peroxidase [4]: 8.24 μmoles per minute per ml
Oxidation rate of azo dyes, S. chromofuscus peroxidase [5]: 1.78 μmoles per minute per ml
Oxidation rate of azo dyes, P. chrysosporium Mn-peroxidase (Mn(II)-peroxidase [6]): 3.06 μmoles per minute per ml
Oxidation rate of azo dyes, P. chrysosporium Ligninase (ligninase; crude enzyme, conditions specific for ligninase): 0.44 μmoles per minute per ml
Oxidation / decolorization by ligninase (ligninase): not detected
Degradation by Phanerochaete fungus ([1]; growth period of seven days, starting dye 150-200 ppm (FIG. 3), 10080 min): 90%
% Decolorization, P. chrysosporium ([1]; initial concn 150 ppm): 99%
% Decolorization, P. chrysosporium ([1]; initial concn 300 ppm): 62%
Degradation by manganese peroxidase (HPLC, words) (Mn(II)-peroxidase [3]; one hour incubation): almost completely degraded
Structure (SMILES): COc1cc(N=Nc2ccc(N=Nc3ccc(S(=O)(=O)O)cc3)cc2S(=O)(=O)O)ccc1O [compound 1]

Further lines, the compound ahead of its results:

Structure (SMILES): O=S(=O)(O)c1ccc2c(N=Nc3ccccc3)c(O)ccc2c1 [Azo dye 19, 1-phenylazo-2-hydroxynaphthalene-6-sulfonic acid]
Decolorization by Streptomyces spp. (Streptomyces spp.): not

Structure (SMILES): COc1cc(N=Nc2ccc(N=Nc3ccc(S(=O)(=O)O)cc3)cc2S(=O)(=O)O)ccc1O [Azo dye 1, 4-(3-methoxy-4-hydroxyphenylazo)-azobenzene-3,4'-disulfonic acid]
Percent substrate removed, S. badius 252 (S. badius 252): 9%
Percent substrate removed, S. diastaticus A12 (S. diastaticus A12): 27%
Percent substrate removed, S. diastaticus A13 (S. diastaticus A13): 15%
Percent substrate removed, S. rochei A10 (S. rochei A10): 51%
Percent substrate removed, S. rochei A14 (S. rochei A14): 43%
Percent substrate removed, S. chromofuscus A11 (S. chromofuscus A11): 56%
Percent substrate removed, P. chrysosporium ([1]; growth period 7 days): 93%
Percent substrate removed, S. chromofuscus A20 (S. chromofuscus A20): 1%
Percent substrate removed, S. viridosporus T7A (S. viridosporus T7A): 1%

Structure (SMILES): COc1cc(N=N[14c]2[14cH][14cH][14c](S(=O)(=O)O)[14cH][14cH]2)ccc1O [compound 34]
Percentage of radioactivity recovered in CO2, P. chrysosporium (P. chrysosporium): 25.7%
Percentage of radioactivity recovered in biomass (cells), P. chrysosporium (P. chrysosporium): 5.2%
Percentage of radioactivity removed from the medium, P. chrysosporium (P. chrysosporium): 31.7%
Mineralization rate relative to dyes 33 and 35 (P. chrysosporium; first 10 days of incubation): twice as fast
Mineralization by the streptomycetes ([2]; 21-day incubation): mineralized
Radioactivity accounted for by dye absorbed by the cells ([2]; 21 days growth of S. chromofuscus): 9%
Percentage of radioactivity recovered in CO2, Streptomyces chromofuscus [2]: ~4%
Percentage of radioactivity recovered in biomass (cells), Streptomyces chromofuscus [2]: 4.6%
Dye mineralized by soil microflora (soil microflora): 14%
Dye transformed by soil microflora (soil microflora): 46%

Structure (SMILES): COc1cc(N=Nc2ccc(S(=O)(=O)O)cc2)ccc1O [Azo dye 2, 3-methoxy-4-hydroxy-azobenzene-4'-sulfonic acid]
Percent substrate removed, S. badius 252 (S. badius 252): 18%
Percent substrate removed, S. diastaticus A12 (S. diastaticus A12): 30%
Percent substrate removed, S. diastaticus A13 (S. diastaticus A13): 21%
Percent substrate removed, S. rochei A10 (S. rochei A10): 74%
Percent substrate removed, S. rochei A14 (S. rochei A14): 72%
Percent substrate removed, S. chromofuscus A11 (S. chromofuscus A11): 89%
Percent substrate removed, P. chrysosporium ([1]; growth period 7 days): 94%
Percent substrate removed, S. chromofuscus A20 (S. chromofuscus A20): 11%
Percent substrate removed, S. viridosporus T7A (S. viridosporus T7A): 9%

Structure (SMILES): O=S(=O)(O)c1ccc(N=Nc2c(O)ccc3ccccc23)cc1 [Azo dye 31, 4-(2-hydroxy-1-naphthylazo)benzenesulfonic acid]
Decolorization by Streptomyces spp. (Streptomyces spp.): not
